The subject of the series is molécules de classe II du CMH. The series can be described thus: Quantification of surface expression of MHC class II molecules by flow cytometry (anti-HLA DR-FITC) after 24 h stimulation of cells with peptides or lipopeptides. The series is classed as cell-based, humaine. The following applies: for Moyenne: mean fluorescence of treated COLO 205 cells; for Rapport: ratio of mean fluorescence of treated to untreated COLO 205 cells. As for the experimental part: Les cellules COLO 205 (lignée cellulaire humaine issue d'un carcinome de colon) proviennent de la banque de cellules ATCC (American Type Culture Collection). Elles sont cultivées en milieu RPMI 1640 (Gibco BRL, Courbevoie, France) avec 10% de sérum de veau foetal (SVF) et 5 mM de pyruvate de sodium, et incubées à 37°C en présence de 5% de CO2. Les cellules sont stimulées pendant 24 heures avec différentes concentrations (35, 50 ou 65 µM) de peptides ou de lipopeptides. Les cellules sont ensuite marquées pendant 1 heure à 4°C avec 10 µl d'anticorps de souris anti-HLA DR de classe-II, couplé à la FITC (clone TAL, 1B5, Cymbus Biotechnology Ltd, Hants, Grande-Bretagne) dans 10% de SVF/PBS, puis lavées 3 fois par du SVF/PBS.
L'expression de surface des molécules de classe II du CMH est analysée par cytométrie de flux sur un cytomètre Coulter EPICS II, à raison de 10 000 évènements par échantillon. L'intensité de fluorescence observée est directement proportionnelle à la quantité de molécules de classe II du CMH présente à la surface des cellules. La moyenne de fluorescence observée pour les cellules non traitées et pour les cellules traitées (colonne « Moyenne» dans le tableau II) permet de calculer un rapport entre la moyenne de fluorescence des cellules traitées et la moyenne de fluorescence des cellules non traitées (colonne « Rapport » dans le tableau II).
On the technique in general: A flow cytometer gives signals particle by particle.

Starred links: 1 amine or outer side, 2 acyl side, 3 side chain; linkers in the order of their positions; H or OH if unused. Non-standard residues stand in square brackets, D forms with d. No end group written: not given here. Hydrazinoacetyl = O=C(CNN[*:1])[*:2]

Take “H2N-NH-CH2CO-PSRENQNAVKIQKLSVVLRREQKHRVERLAFRNQSLPF-NH2 ([Hydrazinoacetyl]PSRENQNAVKIQKLSVVLRREQKHRVERLAFRNQSLPF-NH2; N-terminus assumed; SMILES CC[C@H](C)[C@H](NC(=O)[C@H](CCCCN)NC(=O)[C@@H](NC(=O)[C@H](C)NC(=O)[C@H](CC(N)=O)NC(=O)[C@H](CCC(N)=O)NC(=O)[C@H](CC(N)=O)NC(=O)[C@H](CCC(=O)O)NC(=O)[C@H](CCCNC(=N)N)NC(=O)[C@H](CO)NC(=O)[C@@H]1CCCN1C(=O)CNN)C(C)C)C(=O)N[C@@H](CCC(N)=O)C(=O)N[C@@H](CCCCN)C(=O)N[C@@H](CC(C)C)C(=O)N[C@@H](CO)C(=O)N[C@H](C(=O)N[C@H](C(=O)N[C@@H](CC(C)C)C(=O)N[C@@H](CCCNC(=N)N)C(=O)N[C@@H](CCCNC(=N)N)C(=O)N[C@@H](CCC(=O)O)C(=O)N[C@@H](CCC(N)=O)C(=O)N[C@@H](CCCCN)C(=O)N[C@@H](Cc1c[nH]cn1)C(=O)N[C@@H](CCCNC(=N)N)C(=O)N[C@H](C(=O)N[C@@H](CCC(=O)O)C(=O)N[C@@H](CCCNC(=N)N)C(=O)N[C@@H](CC(C)C)C(=O)N[C@@H](C)C(=O)N[C@@H](Cc1ccccc1)C(=O)N[C@@H](CCCNC(=N)N)C(=O)N[C@@H](CC(N)=O)C(=O)N[C@@H](CCC(N)=O)C(=O)N[C@@H](CO)C(=O)N[C@@H](CC(C)C)C(=O)N1CCC[C@H]1C(=O)N[C@@H](Cc1ccccc1)C(N)=O)C(C)C)C(C)C)C(C)C) [peptide 22Sc]”: the Moyenne is, setting by setting: (35 µM) 1,36; (50 µM) 1,60; (65 µM) 1,67. The Rapport (35 µM) is on record as 1,8, the Rapport (50 µM) is 2,18 and the Rapport (65 µM) is 2,27.
Turning to “palm-NH-NH-CH2CO-PSRENQNAVKIQKLSVVLRREQKHR-VERLAFRNQSLPF-NH2 [peptide 23Sc]”, the Moyenne by setting is: (35 µM) 4,72; (50 µM) 4,51; (65 µM) 5,55. The Rapport reads like this: (35 µM) 9,16; (50 µM) 6,15; (65 µM) 7,5.

The record behind these values is patent EP1206482B1, “METHOD FOR COUPLING, IN SOLUTION, A PEPTIDE WITH AT LEAST ANOTHER COMPOUND AND USES THEREOF” (INSTITUT PASTEUR DE LILLE, priority 1999, dated 2001).
